Our source for the IC50 and IC90 values is PubChem BioAssay AID434987 (Southern Research Specialized Biocontainment Screening …, 2010).

The assay concerns M. tuberculosis H37Rv growth inhibition with meropenem. The experiment in a line: dose response, H37Rv, with and without meropenem (AID 434987).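 Also: growth over 7 days at 37 °C before Alamar Blue read on day 9.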
Where [1] appears, read: M. tuberculosis H37Rv growth inhibition, measured here: IC50 without meropenem.
The mark [2] stands for this setting: M. tuberculosis H37Rv growth inhibition, measured here: IC90 without meropenem.
Where [3] appears, read: measured here: IC90 with meropenem.

SMILES strings stand for the structures. Activity calls are given as the source filed them. No rule for the calls is given here.

For the molecule `Cc1ccc(C(=O)NN2C(=O)/C(=C/c3cccn3C)SC2=S)cc1`, the IC50 (in general, the concentration at which inhibition is half-maximal) was > 100 µM (inactive). For the same molecule, the IC50 under setting [1] is over 100 µM. Also, the IC90 (commonly the point of the concentration-response curve where the effect stands at 90%) under setting [2] is over 100 µM. This molecule also gave an IC90 under setting [3] of over 100 µM.
For `O=C(OCC(=O)N1CCN(C(=O)c2ccco2)CC1)c1cc(-c2ccco2)nc2ccccc12`, the IC50 is 99.1 µM (inactive). Besides, the IC50 under setting [1] is over 100 µM. This molecule also registered an IC90 under setting [2] of over 100 µM. The IC90 under setting [3] is over 100 µM.
Consider `Cc1c(C(=O)c2ccccc2)oc2ccc3ccccc3c12`, for which the IC50 was > 100 µM (inactive). Moreover, the IC50 under setting [1] was over 100 µM. In addition, under setting [2], the IC90 was over 100 µM. Under setting [3], this molecule came in with an IC90 of over 100 µM.
For `CN(C)c1ccc(S(=O)(=O)NCC(=O)OCC(=O)Nc2cccc(Cl)c2)cc1[N+](=O)[O-]`, the IC50 was > 100 µM (inactive). Further, the IC50 under setting [1] was over 100 µM. The molecule also gave an IC90 under setting [2] of over 100 µM. The IC90 under setting [3] is over 100 µM.
Regarding `COc1cc(/C=C/C(=O)NC(C)(C)C)ccc1OCc1ccccc1`, the IC50 was > 100 µM (inactive). In addition, the IC50 under setting [1] is over 100 µM. This molecule yielded an IC90 under setting [2] of over 100 µM. Under setting [3], this molecule had a 90% effect concentration (IC90) of over 100 µM.
In the case of `COC(=O)/C(=C\Nc1ccc(Cl)c2ccccc12)c1ncc(C(F)(F)F)cc1Cl`, the IC50 was 36 µM. This molecule also showed an IC50 under setting [1] of over 100 µM. In addition, the IC90 under setting [2] is over 100 µM. Further, the IC90 under setting [3] is over 100 µM.
In the case of `CSc1nsc(SC)c1NC(=O)OCc1ccccc1`, the IC50 is 32.3 µM. Under setting [1], this molecule returned an IC50 of over 100 µM. The IC90 under setting [2] is over 100 µM. Moreover, the IC90 under setting [3] was over 100 µM.
With `CCOC(=O)c1cnc2cc(-c3ccc(C(C)(C)C)cc3)nn2c1N`, the IC50 was 0.899 µM. Under setting [1], this molecule came in with an IC50 of 12.1 µM. In addition, the IC90 under setting [2] was over 100 µM. The molecule further gave an IC90 under setting [3] of 5.74 µM.
The like results for `O=C(N/N=C/c1ccc([N+](=O)[O-])o1)c1ccccc1-n1cccc1` were, in that order, 4.74 µM, 13.9 µM, 35 µM and 29.4 µM.
The like results for `COc1cc2c(=O)n(Cc3ccco3)c(=O)n(CC(=O)c3cccc(Br)c3)c2cc1OC` were, in that order, > 100 µM (inactive), over 100 µM, over 100 µM and over 100 µM.
Regarding `C/C(=N/NC(=O)c1cccs1)c1c(C)[nH]n(-c2nc3ccccc3s2)c1=O`, the IC50 was 1.44 µM (inactive). In addition, under setting [1], the IC50 came to 1.52 µM. This molecule also showed an IC90 under setting [2] of 1.69 µM. This molecule showed an IC90 under setting [3] of 1.58 µM.
Taken in the same sequence, the figures for `CCCCCn1c(=O)c(C(=O)Nc2cnccn2)c(O)c2ccccc21` were 10.8 µM (inactive), 13.7 µM, 16.4 µM and 13.8 µM.
For `O=C(N/N=C/c1ccc2c(c1)OCO2)c1sc2cc(Cl)ccc2c1Cl`, the IC50 was > 100 µM (inactive). Further, under setting [1], the IC50 was over 100 µM. The molecule also yielded an IC90 under setting [2] of over 100 µM. The concentration for an effect of 90% (IC90) under setting [3] was over 100 µM.
Take `COc1ccc(C(=O)Nc2nc3ccccc3s2)c(OC)c1`: the IC50 was > 100 µM (inactive). Under setting [1], this molecule had an IC50 of over 100 µM. Besides, the IC90 under setting [2] is over 100 µM. The molecule further came in with an IC90 under setting [3] of over 100 µM.
For the molecule `CCOC(=O)c1sc(NC(=O)CN2CCCC2)c(C(=O)OCC)c1C`, the IC50 was > 100 µM (inactive). Under setting [1], the IC50 is over 100 µM. Under setting [2], the 90% effect concentration (IC90) was over 100 µM. The same molecule had an IC90 under setting [3] of over 100 µM.
With `Cc1ccc2c(c1)CCCN2C(=O)c1cc2ccccc2oc1=O`, the IC50 is 22.9 µM. This molecule registered an IC50 under setting [1] of over 100 µM. For the same molecule, the IC90 under setting [2] is over 100 µM. Under setting [3], this molecule displayed an IC90 of over 25 µM.
In the case of `COc1cc(NC(=O)c2cc(-c3cccnc3)nc3ccc(Br)cc23)cc(OC)c1`, the IC50 is > 100 µM (inactive). Also, under setting [1], the IC50 was over 100 µM. Further, the IC90 under setting [2] is over 100 µM. This molecule also yielded an IC90 under setting [3] of over 100 µM.
Turning to `CSc1nnc(-c2ccc(NC(N)=S)cc2)o1`, the IC50 was 12.2 µM. Moreover, under setting [1], the IC50 is over 100 µM. This molecule registered an IC90 under setting [2] of over 100 µM. In addition, the IC90 under setting [3] was over 100 µM.
Consider `CSc1nc2cc3c(cc2n1C(=O)c1ccc(C)cc1)OCCO3`, for which the IC50 is 5.15 µM. For the same molecule, under setting [1], the IC50 is over 100 µM. Besides, under setting [2], the IC90 is over 100 µM. This molecule also showed an IC90 under setting [3] of over 100 µM.
As to `CCOC(=O)c1cc(-c2ccccc2)sc1NC(=O)C(C)N1C(=O)NC(C)(c2ccc(Cl)cc2)C1=O` (centres undefined), the IC50 is > 100 µM (inactive). Under setting [1], this molecule had a 50% inhibitory concentration (IC50) of over 100 µM. Under setting [2], this molecule showed an IC90 of over 100 µM. Also, the IC90 under setting [3] is over 100 µM.
With `O=C(CN1CCN(c2ccc(F)cc2)CC1)Nc1ccccc1C(=O)NCCc1ccccc1`, the IC50 is 35.1 µM. Further, the concentration for half-maximal inhibition (IC50) under setting [1] was over 100 µM. Under setting [2], the IC90 was over 100 µM. The IC90 under setting [3] is over 100 µM.
